Results from patent US9539261B2, “Methods and compositions for stimulating neurogenesis and inhibiting neuronal degeneration” (Neuronascent, Inc., priority 2005, dated 2017).

Key:
mature neurons [1] = test: LDH assay of neuron degeneration due to hydrogen peroxide toxicity; type: cell-based, human; conditions: hydrogen peroxide for 8 hrs, vehicle control = 0% inhibition, n = 5 wells
[2] = system: human neuronal progenitors cells; test: in vitro neurogenesis test (MAP-2 staining, neuron number); type: cell-based; conditions: MAP-2 staining on day 11; human neuronal progenitors in differentiation media
Protocol: The in vitro neurogenesis test was performed using human neuronal progenitors cells. By way of background, the human neuronal progenitor cells can be cultured in media and have the potential to produce mature functional neurons. The neurogenesis factor in the culture media can promote the number of the progenitor cells which differentiate into neurons. Indeed, it is a widely accepted in vitro model to test a chemical's neurogenetic property.
Cells were obtained as human neuronal progenitors from a commercial source and were grown for up to three passages or at any time differentiated to potentially produce mature functional neurons in culture. Following two passages to expand the cells, progenitors were seeded into multi-well microplates and the media were changed to differentiation media (minus serum and mitogen). Within 2 hrs of this media change, a vehicle, positive control or test compound were added to each well. Also, they were added with every further media change (50% volume change every other day). Control wells contained cells and vehicle (0.2% DMSO in DMEM/F12). […]
The cells were stained using MAP-2, a neuronal marker, on day 11. Then, each test compound was assessed for the ability to promote an increase in neuron number and compared with the positive control, leukemia inhibitory factor (LIF).

mature neurons [3] = test: inhibition of beta amyloid peptide toxicity in mature neurons; type: cell-based, human
Protocol: In measuring the ability of inhibiting apoptosis, mature neurons (3-4 weeks following initiation of differentiation) were treated with staurosporine to induce apoptosis. A low concentration of staurosporine (10-100 nM) or beta amyloid 1-42 peptide at 1-10 μM or peptide beta amyloid 25-35 at 10-75 μM concentration was used to stimulate apoptosis. At the same time as treating with staurosporine, the neurons were treated with vehicle or one of the test agents. […] Each compound's inhibitory ability was compared with vehicle and staurosporine.
Necrosis of the mature neurons was initiated using beta amyloid 1-42 peptide at 1-10 μM or peptide beta amyloid 25-35 at 10-75 μM concentration. This synthetic peptide was of the same length naturally found in AD brain. Because lactate dehydrogenase (LDH) is released from cells when the plasma membrane is impaired, the cell loss was quantified by the amount of LDH released into the media following a 24-48 hr treatment. The ability of neurogenic agents to reduce the LDH release induced by beta amyloid, versus vehicle control was used as the measurement of inhibition of neuron degeneration.

Compound | % Inhibition of neuron degeneration due to hydrogen peroxide toxicity (mature neurons [1]) [%] | increase in the neuron numbers compared with the vehicle control, % of Control [2] | % Inhibition of beta amyloid peptide toxicity (mature neurons [3]) [%]
COc1ccccc1NC(=S)N1CCCN(c2nc3cc(C)cc(C)c3cc2C#N)CC1 [4-(3-Cyano-5,7-dimethyl-quinolin-2-yl)-[1,4]diazepane-1-carbothioic acid (2-methoxy-phenyl)-amide] | 50 | 110 % of Control | 84
COCCN(Cc1cc2ccc(C)c(C)c2nc1Cl)C(=O)Nc1ccccc1OC [1-(2-Chloro-7,8-dimethyl-quinolin-3-ylmethyl)-1-(2-methoxy-ethyl)-3-(2-methoxy-phenyl)-urea] | – | 132 % of Control | –
4-Benzo-8-aza-bicyclo[3.2.1]oct-3-yl)-3-(2-chloro-phenyl)-thiourea | – | – | 68
